Experimental data as given in patent EP1056700B1, “MEDICINAL USES OF PHENYLALKANOLS AND DERIVATES” (ZingoTX Pty Ltd, priority 1997, dated 1999).

Tests used:
Cyclo-oxygenase (COX) = assay: Cyclo-oxygenase assay in RBL 2H3 cells (PGD2 EIA); assay type: cell-based, rat
Procedure: Cyclo-oxygenase (COX) assay was performed with cells in culture prepared from rat basophilic leukemia (RBL) 2H3 cell lines. Cells were cultured in EMEM containing 10% fetal calf serum and antibiotic until cells reached confluence. Harvested cells were subsequently seeded on 24-well plates at 1 x 10^6 cells/ml then incubated at 37°C for 3 hours. Cells were washed twice with incubation buffer (1.5 ml) containing 5 mM Hepes, 140 mM NaCl, 5 mM KCl, 0.6 mM MgCl2, 1 mM CaCl2 and […]. Cells were then covered with 0.49 ml of buffer, followed by addition of samples/solvents (0.005 ml) and incubated at 37 °C for 5 min on an orbital shaker. Arachidonic acid (0.005 ml, containing 50% EtOH) was subsequently added, and the plate was incubated at similar conditions for a further 10 min. The supernatant (0.1 ml) was aliquoted for methoxime derivatisation of PGD2, which was carried out by heating the supernatant with methoxime solution (1:1) at 60 °C for 30 min according to the instructions provided with the kit. The resultant solution was diluted with EIA buffer and stored on ice for EIA, following the protocol provided with the kit.
Validation of COX enzyme activity was carried out using EIA in which the enzyme activity was characterised against various concentrations of AA and a time course of enzyme activity.
[…] Indomethacin was used as reference compound. The concentration of DMSO in the assay was maintained at 1.5%.

DRG neuronal cells = assay: Peak [Ca^2+]i transients in cultured dorsal root ganglion neurons (Fura-2); assay type: cell-based, rat; conditions: for Number of capsaicin-sensitive cells responding / Peak [Ca^2+]i (Average ±SD): 2 mM Ca^2+
Procedure: DRG from neonatal (3-5 days old) rat or adult Sprague-Dawley rats were incubated in Hanks CMF saline with 0.05% collagenase and 0.25% trypsin for 25 min at 37° C. Individual cells were obtained by trituration with fire polished Pasteur pipettes of diminishing diameters. Neurones were isolated from the cell suspension in 30% Percoll and then plated on collagen coated coverslips or in 24-well plates, then cultured in neurobasal medium with B27 supplement, 50 ng/ml 2.5 S nerve growth factor, 2 mM 1-glutamine and 100 U/ml penicillin/streptomycin. Cultures were maintained at 37° C with 5% CO2. 30% Percoll increases the percentage of capsaicin-sensitive DRG neurones up to 70%. For peak [Ca^2+]i transients measurements, cells on coverslips were incubated with 5 µM Fura-2 AM for 30 min at 37° C. The coverslips were then mounted on a chamber attached to a fast sample application perfusion system which allows changing solutions in the second range. Recordings were made on the stage of a Nikon Diaphot inverted microscope fitted with a Nikon 40 x Fluo (NA 0.85) DL Ph3 or 40 x Fluo (NA 1.3) oil objective. [Ca^2+]i was calculated from dual excitation wavelength (340/380 nm) fluorescence measurements following an intracellular calibration procedure by the Grynkiewicz equation, using MCID M2/M4 v.3.0 (Imaging Res. Inc.) software. Cells were continuously perfused with a solution consisting of 140 mM NaCl, 2 mM CaCl2, 5 mM KCl, 20 mM HEPES, 10 mM glucose, pH 7.4. To study KCl evoked depolarisation, 50 mM NaCl was replaced by equimolar KCl. Cytoplasmic localisation of Fura-2 was tested with the Mn^2+ quenching technique (Dedov and Roufogalis, 1998). All experiments were performed at room temperature (20-23°C).
Typical changes in [Ca^2+]i upon depolarisation were evoked by 50 mM KCl and by application of 1 µM capsaicin; both were applied for 30 sec. Capsaicin-evoked peak [Ca^2+]i transients are characterised by a fast rise and long-steady state [Ca^2+]i clearance from the cytoplasm. In capsaicin-sensitive cells the half-time of cytoplasmic Ca^2+ clearance was proportional to the amplitudes of peak [Ca^2+]i transients.
To examine the effect of gingerol derivatives, one or several compounds in succession at a concentration of 10 µM were applied for 1 min to the DRG neuronal cells followed by washing out for 4 min with physiological solution. To the capsaicin-sensitive cells, 10 µM capsaicin and 50 mM KCl were applied, respectively, to confirm the viability of the cells. In addition, morphological appearances of the cells were also examined at the end of experiment. […]

Lipoxygenase (LP) = molecular target: T1, Lipoxygenase (LP) (Rattus norvegicus, UniProt P12527); assay: Lipoxygenase assay with cell-free enzyme from RBL 2H3 cells (EIA); assay type: biochemical; conditions: for activity at 10 µM: final concentration of 10 µM
T1 construct: cell-free enzyme (Wong et al, 1991) prepared from rat basophilic leukemia (RBL) 2H3 cell lines; endogenous in cells; host or cells: RBL 2H3 (rat basophilic leukemia), 15,000 g supernatant of cells disrupted by nitrogen cavitation
T1 sequence (P12527 1-673): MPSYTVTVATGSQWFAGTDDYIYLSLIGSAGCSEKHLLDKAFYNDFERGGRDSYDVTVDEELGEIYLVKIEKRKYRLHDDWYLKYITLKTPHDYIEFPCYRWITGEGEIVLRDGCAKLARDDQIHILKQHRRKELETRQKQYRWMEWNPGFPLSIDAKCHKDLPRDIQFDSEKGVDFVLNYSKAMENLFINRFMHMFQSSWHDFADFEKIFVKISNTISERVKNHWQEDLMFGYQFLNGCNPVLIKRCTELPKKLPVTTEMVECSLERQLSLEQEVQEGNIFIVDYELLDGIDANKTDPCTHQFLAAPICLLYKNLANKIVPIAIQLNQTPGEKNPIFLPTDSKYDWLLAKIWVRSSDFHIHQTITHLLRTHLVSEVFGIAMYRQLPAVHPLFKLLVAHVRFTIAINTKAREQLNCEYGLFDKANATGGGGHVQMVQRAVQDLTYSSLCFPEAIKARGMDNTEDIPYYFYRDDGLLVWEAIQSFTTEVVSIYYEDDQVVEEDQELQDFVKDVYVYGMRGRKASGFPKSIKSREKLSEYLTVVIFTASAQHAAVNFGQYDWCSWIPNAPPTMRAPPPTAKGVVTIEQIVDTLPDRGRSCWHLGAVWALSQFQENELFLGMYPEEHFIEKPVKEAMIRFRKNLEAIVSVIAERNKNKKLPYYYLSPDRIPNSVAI
Procedure: Lipoxygenase (LP) assay was performed with cell-free enzyme (Wong et al, 1991) prepared from rat basophilic leukemia (RBL) 2H3 cell lines. Cells were cultured in EMEM containing 10% fetal calf serum and antibiotic until cells reached confluence. Harvested cells were resuspended in Hepes (10 mM) buffer, pH 7.4, containing 1 mM EDTA at 1 x 10^7 cells/ml, and disrupted by nitrogen cavitation using a Parr bomb at 750 psi for 15 min. The broken cells were centrifuged at 15,000 g for 30 min. Aliquots (0.1 ml) of the supernatant were preincubated with or without drugs in Hepes buffer (10 mM Hepes, pH 7, 1 mM EDTA and 150 mM NaCl) for 5 min, and the reaction was initiated with the addition of 50 µl of CaCl2 (16 mM), 50 µl of ATP (2 mM), 5 µl of PAF (2.5 mg/ml) and 5 µl of AA (2.5 mM). The reaction mixture ([…]) was incubated at room temperature for a further 8 min, then diluted with EIA buffer at 1/200 and 1/2000 dilutions and stored on ice for EIA following the protocol provided with the kit.
Validation of LP enzyme activity was carried out by a UV spectrophotometric method in which the enzyme activity was characterised against various concentrations of Ca^2+, ATP, PAF and AA with the measurement of the formation of diene conjugated products of LP at 235 nm.
All compounds were dissolved in DMSO and assayed at a final concentration of 10 µM. NDGA was used as reference compound. The concentration of DMSO in the assay was maintained at 1.5%.

guinea pig atria = assay: Organ bath assay on isolated guinea pig atria (rate and force of contraction)
Procedure: Male guinea pigs, 3-4 weeks old, were killed by rapid cervical dislocation without induced anaesthesia. Then, the guinea pigs were dissected to isolate the atria which were immediately mounted vertically in an organ bath containing Krebs-Henseleit solution oxygenated with carbogen.
One gram tension was applied to the atria and the base line continuously adjusted until it was stable for 20 mins. The rate and force of contraction were recorded using Mac Lab equipment.
Test substances in DMSO were assayed to a maximum concentration of 50 µM at a final concentration of 2.5 % of DMSO.

SR Ca^2+-ATPase = molecular target: T2, SR Ca^2+-ATPase (Canis lupus familiaris, UniProt O46674); assay: Sarcoplasmic reticulum Ca^2+-ATPase assay; assay type: biochemical, dog; conditions: result in words
T2 construct: Effect of gingerols and their derivatives on the Ca^2+-ATPase activity of dog cardiac SR; from tissue; host or cells: dog heart (cardiac sarcoplasmic reticulum)
T2 sequence (O46674 whole entry): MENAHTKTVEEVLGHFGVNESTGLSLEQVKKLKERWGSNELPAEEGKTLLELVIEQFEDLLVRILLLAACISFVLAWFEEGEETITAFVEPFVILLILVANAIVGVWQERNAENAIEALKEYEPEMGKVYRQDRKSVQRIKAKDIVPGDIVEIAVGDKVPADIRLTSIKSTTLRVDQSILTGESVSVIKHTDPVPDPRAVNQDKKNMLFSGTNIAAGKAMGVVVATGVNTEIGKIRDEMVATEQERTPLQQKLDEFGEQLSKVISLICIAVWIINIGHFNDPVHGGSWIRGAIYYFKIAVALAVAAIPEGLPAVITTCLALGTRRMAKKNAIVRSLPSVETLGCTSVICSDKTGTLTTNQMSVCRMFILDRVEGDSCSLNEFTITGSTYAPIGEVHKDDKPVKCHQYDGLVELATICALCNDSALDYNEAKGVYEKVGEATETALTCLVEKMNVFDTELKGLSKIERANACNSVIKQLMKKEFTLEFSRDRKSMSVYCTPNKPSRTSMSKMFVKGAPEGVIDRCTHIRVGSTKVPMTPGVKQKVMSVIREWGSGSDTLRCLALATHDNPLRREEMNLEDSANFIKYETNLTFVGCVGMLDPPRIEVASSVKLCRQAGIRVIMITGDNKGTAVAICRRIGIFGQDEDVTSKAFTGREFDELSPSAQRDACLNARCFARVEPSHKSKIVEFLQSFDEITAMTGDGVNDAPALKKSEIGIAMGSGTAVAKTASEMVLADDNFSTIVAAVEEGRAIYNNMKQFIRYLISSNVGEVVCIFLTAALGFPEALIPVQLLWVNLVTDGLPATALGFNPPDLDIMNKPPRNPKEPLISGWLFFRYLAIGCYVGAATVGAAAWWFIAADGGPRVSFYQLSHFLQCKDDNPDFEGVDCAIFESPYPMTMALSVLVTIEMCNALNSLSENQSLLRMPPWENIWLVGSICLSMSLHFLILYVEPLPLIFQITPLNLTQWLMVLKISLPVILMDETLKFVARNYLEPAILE
Procedure: A portion at each concentration (54 µl) was aliquoted into 4 designated wells of the microplate (two of four wells were controls). Each well was mixed with ATP solution (20 mM, 6 µl), except the controls, using an 8 channel pipette. The controls were assayed in the absence of ATP or calcium.
The plate was incubated with the lid on, for 30 min at 37°C, colour reagent (160 µl) was then added and mixed with citrate solution (34%, 30 µl). The plate was developed at room temperature for 30 min then absorbance at 655 nm was read from the microplate reader. The Ca^2+-ATPase activity was quantitated, from a Pi standard curve, as concentration of liberated inorganic phosphate.
Stock solutions (10 mM) of test substance were prepared in DMSO, then series dilutions were made either in DMSO or in 1M HEPES to produce the dose-response concentrations. The maximum concentration of DMSO in the final assay solution was 2.5%.
Each concentration of test substance was assayed in duplicate in the presence and absence of ATP or calcium. Phosphate standards are run on each plate as follows:
Effect of gingerols and their derivatives on the Ca^2+-ATPase activity of dog cardiac SR.

[1] = result in words, guinea pig atria

**Q.** With `CCCCCCCCCC(O)C(=O)c1ccc(O)c(OC)c1` (centres unmarked) [2-hydroxy-1-(4-hydroxy-3-methoxyphenyl)undecan-1-one] as the molecule, how does the “Cyclooxygenase activity % activity” value (Cyclo-oxygenase (COX); final concentration of 10 µM) read?
**A.** 95%

**Q.** And the “Number of capsaicin-sensitive cells responding” value (from here on “Number”) (DRG neuronal cells; 10 µM applied for 1 min)?
**A.** 2

**Q.** What about the “Peak [Ca^2+]i (Average ±SD)” value (DRG neuronal cells; 10 µM applied for 1 min) of the same molecule?
**A.** 215 ± 7 nM

**Q.** What about the activity at 10 µM (Lipoxygenase (LP)) of the same molecule?
**A.** 61%

**Q.** `COc1cc(CNC(=O)CCCC/C=C/C(C)C)ccc1O` [Capsaicin, reference compound] was tested. Which “tachycardial and inotropic effects on guinea pig atria” value (guinea pig atria; result in words) did it give?
**A.** tachycardial and inotropic effects

**Q.** And the “Number” value (DRG neuronal cells; high responses, 10 µM)?
**A.** 5

**Q.** And the “Peak [Ca^2+]i (Average ±SD)” value (DRG neuronal cells; high responses, 10 µM)?
**A.** 824 ± 122 (high responses) nM

**Q.** And the “evoked [Ca^2+]i transients” value (DRG neuronal cells; in Ca^2+-free medium or on application of ruthenium red (1 µM))?
**A.** abolished or greatly diminished

**Q.** What about the “Number” value (DRG neuronal cells; low responses, 10 µM) of the same molecule?
**A.** 10

**Q.** What about the “Peak [Ca^2+]i (Average ±SD)” value (DRG neuronal cells; low responses, 10 µM) of the same molecule?
**A.** 134 ± 78 (low responses) nM

**Q.** For `C[C@H]1O[C@@H](O[C@H]2[C@@H](O)C[C@H](O[C@H]3[C@@H](O)C[C@H](O[C@H]4CC[C@@]5(C)[C@H](CC[C@@H]6[C@@H]5C[C@@H](O)[C@]5(C)[C@@H](C7=CC(=O)OC7)CC[C@]65O)C4)O[C@@H]3C)O[C@@H]2C)C[C@H](O)[C@@H]1O` [Digoxin, reference compound], which “time for tension to reach maximum after addition of a dose” value (guinea pig atria; guinea pig atria) is on record?
**A.** a few mins

**Q.** For `COc1ccc2c(c1)c(CC(=O)O)c(C)n2C(=O)c1ccc(Cl)cc1` [Indomethacin, reference compound], which “Cyclooxygenase activity % activity” value (Cyclo-oxygenase (COX); 1 µM) is on record?
**A.** 23%

**Q.** For `CC(Cc1ccc(O)c(O)c1)C(C)Cc1ccc(O)c(O)c1` (centres unmarked) [NDGA, reference compound], which activity at 0.5 µM (Lipoxygenase (LP); 0.5 µM) is on record?
**A.** 20%

**Q.** For `CCCCCCCC=CC(=O)CCc1ccc(O)c(OC)c1` [[8]-shogaol, 1-(4-hydroxy-3-methoxyphenyl)dodecan-4-ene-3-one, reference compound], which “Cyclooxygenase activity % activity” value (Cyclo-oxygenase (COX); final concentration of 10 µM) is on record?
**A.** 21%

**Q.** What about the “Number” value (DRG neuronal cells; 10 µM applied for 1 min) of the same molecule?
**A.** 2

**Q.** And the “Peak [Ca^2+]i (Average ±SD)” value (DRG neuronal cells; 10 µM applied for 1 min)?
**A.** 110 ± 56 nM

**Q.** And the activity at 10 µM (Lipoxygenase (LP))?
**A.** 0%

**Q.** What does the source list for `COc1cc(CCC(=O)CC(O)CCCCCCC(O)CC(=O)CCc2ccc(O)c(OC)c2)ccc1O` (centres unmarked) [bisgingerol, 5,12-dihydroxy-1,16-bis(4-hydroxy-3-methoxyphenyl)hexadecane-3,14-dione]?
**A.** FORCE OF CONTRACT^n (guinea pig atria; [1]): inactive; HEART RATE (guinea pig atria; [1]): inactive

**Q.** Which “SR Ca^2+-ATPase” value (SR Ca^2+-ATPase) does the source give for `CCCCCCCC(O)CC(=O)CCc1ccc2c(c1)OCO2` (centres unmarked) [drawing 42] here?
**A.** inactive
